Literature values in patent US7964610B2, “Buprenorphine derivatives and uses thereof” (Reckitt Benckiser Healthcare (UK) Limited, priority 2006, dated 2011).

CO[C@]12CCC3(C[C@@H]1[C@](C)(O)C(C)(C)C)[C@H]1Cc4ccc(O)c5c4[C@@]3(CCN1CC1CC1)[C@H]2O5 [buprenorphine]
bioavailability when taken orally (oral (swallowed)): ~5%
bioavailability when absorbed sublingually (sublingual): approximately fifty
